Reference: patent publication US10639320B2, “Pharmaceutical composition comprising gold-containing agent for preventing or treating liver fibrosis or liver cirrhosis” (KOREA UNITED PHARM. INC., priority 2014, dated 2020)

Legend:
RAW264.7 cells [1] = test: iNOS and TREM-2 expression by western blot in RAW264.7 cells under M1-type differentiation (LPS/IFN-γ); assay type: cell-based, mouse; conditions: RAW264.7 cells treated with LPS/IFN-γ (M1-type condition)
Experimental: (§1) Sodium dodecyl sulfate-polyacrylamide gel electrophoresis (SDS-PAGE) was performed using a gel electrophoresis apparatus (Mighty Small SE 250, Hoefer Scientific Instruments, San Francisco, USA) according to the Laemmli's protocol. A dissolved fraction of cells was diluted in a sample dilution buffer [63 mM Tris (pH.6.8), 10% glycerol, 2% SDS, 0.0013% bromophenol blue, 5% β-mercaptoethanol) and electrophoresed in an electrode buffer (containing Tris (15 g), glycerin (72 g), and SDS (5 g) in 1L solution) using 8%- and 10% gels. Upon completion of gel electrophoresis, the gel was transferred onto a nitrocellulose membrane at 40 mAmps for 3 hours in a transfer buffer solution (25 mM Tris, 192 mM glycerin, 20% v/v methanol (pH 8.3)). Each of anti-TREM-2, anti-arginase-1, anti-iNOS, anti-α-SMA, and anti-collagen-1a1, as primary antibodies, was reacted on the nitrocellulose membrane, respectively, and horseradish peroxidase-conjugated goat anti-rabbit IgG and horseradish peroxidase-conjugated goat anti-mouse IgG, as secondary antibodies, were reacted thereonto for 1 hour, and the nitrocellulose membrane was allowed to develop colors using the ECL detection system (ECL chemiluminescence system, Amersham, Gaithesberg, Mass., USA). The identity of protein contents in a sample was confirmed using anti-β-actin antibody and anti-lamin A/C. With respect to the change in the amount of protein expression, the coloration intensity was induced using a densitometry and the scanning of the densitometry was performed using the Image Scan & Analysis System, Alpha-Innotech Co. (USA). In each lane, the intensities were calculated using the AlphaEase™ version 5.5 software by subtracting background intensities.
In order to confirm whether gold-containing agents can induce the transformation into M2-type macrophages, the RAW264.7 cells, which is a mouse macrophage cell line, were treated with lipopolysaccharide (LPS)/interferon-gamma (IFN-γ), followed by treatment with auranofin in a condition for differentiation into M1-type macrophages, and the increase/decrease in expressions of iNOS and TREM-2 was confirmed by western blot analysis.
First, the RAW264.7 cells, which is a mouse macrophage cell line, were respectively treated with sodium aurothiomalate and aurothioglucose, which are analogous to auranofin, in a condition for differentiating the cells into M1-type macrophages by treating with lipopolysaccharide (LPS)/interferon-gamma (IFN-gamma), and the increase/decrease in expression of iNOS was confirmed by western blot analysis.

MEF cells = test: α-SMA expression by western blot in MEF cells treated with medium of auranofin-treated RAW264.7 cells; assay type: cell-based, mouse; conditions: MEF cells treated with medium from treated RAW264.7 cells
Experimental: as §1, with “The identity of protein contents in a sample was confirmed using anti-β-actin antibody and anti-lamin A/C. With respect to the change in the amount of protein expression, the coloration intensity was induced using a densitometry and the scanning of the densitometry was performed using the Image Scan & Analysis System, Alpha-Innotech Co. (USA).” left out, “intensities. […]” for “intensities.”

[2] = test system: carbon tetrachloride-induced liver fibrosis; test: Mouse model with carbon tetrachloride-induced liver fibrosis: fibrosis scores, α-SMA and collagen-1a1 in liver tissue; assay type: in vivo, C57BL/6J mice; conditions: 5 times a week for 3 weeks, CCl4 mouse model
Experimental: A mouse model with carbon tetrachloride-induced liver fibrosis was prepared by repeatedly administering 0.5 ml/kg of carbon tetrachloride to C57BL/6J mice twice a week for three weeks.
as §1, with “The identity of protein contents in a sample was confirmed using anti-β-actin antibody and anti-lamin A/C. With respect to the change in the amount of protein expression, the coloration intensity was induced using a densitometry and the scanning of the densitometry was performed using the Image Scan & Analysis System, Alpha-Innotech Co. (USA).” left out
In the case of liver tissue, a certain amount of liver tissue was homogenized in a mortar along with liquid nitrogen and a cell lysis buffer, transferred into a new tube, and vortexed. The resultant was centrifuged at 14,000 rpm and 4° C. for 20 minutes and the middle layer was collected therefrom and the protein amount was quantitated by Bradford assay. After subjecting 30 μg of the protein to electrophoresis by SDS-PAGE, the change in the expression of α-SMA protein was measured by western blot analysis. […]

RAW264.7 cells [3] = test: Arginase-1 expression by western blot in RAW264.7 cells under M2-type differentiation (IL-4); assay type: cell-based, mouse; conditions: RAW264.7 cells treated with IL-4 (M2-type condition)
Experimental: as §1, with “The identity of protein contents in a sample was confirmed using anti-β-actin antibody and anti-lamin A/C. With respect to the change in the amount of protein expression, the coloration intensity was induced using a densitometry and the scanning of the densitometry was performed using the Image Scan & Analysis System, Alpha-Innotech Co. (USA).” left out, “intensities. […]” for “intensities.”

SMILES | expression of TREM-2 (RAW264.7 cells [1]) | expression of iNOS (RAW264.7 cells [1]) | expression of α-SMA (MEF cells) | liver fibrosis scores ([2]; 10 mg/kg oral, H&E staining) | expression of collagen-1a1 in liver tissue ([2]; oral 1, 3 and 10 mg/kg) | expression of α-SMA in liver tissue ([2]; oral 1, 3 and 10 mg/kg) | expression of arginase-1 (RAW264.7 cells [3])
CC[PH](CC)(CC)[Au][S][C@@H]1O[C@H](COC(C)=O)[C@@H](OC(C)=O)[C@H](OC(C)=O)[C@H]1OC(C)=O [auranofin, 2,3,4,6-tetra-O-acetyl-1-thio-β-D-glucopyranosato-S-[triethylphosphine] gold] | increasing | inhibited | inhibited | significantly lowered | apparently reduced | apparently reduced | –
OC[C@H]1O[C@H]([S-])[C@H](O)[C@@H](O)[C@@H]1O.[Au+] [aurothioglucose] | – | inhibited | – | – | – | – | increased
O=C([O-])CC([S-])C(=O)[O-].[Au+].[Na+].[Na+] (stereo not shown) [sodium aurothiomalate] | – | inhibited | – | – | – | – | increased
